Values joined by “and” are separate entries in the source; they are usually repeats but may differ in a detail not shown here. Identical values can stand only once. Like-named read-outs stand apart in the source and are kept apart here.
Columns and labels:
CAI = biological target: T1, CAI (Homo sapiens, UniProt P00915); test: Thermal shift assay (TSA), recombinant CAI; format: binding; settings: 37 °C, pH 7.0, observed (not intrinsic)
T1 construct: made in house; host or cells: E. coli

CAII = biological target: T2, CAII (Homo sapiens, UniProt P00918); test: Thermal shift assay (TSA), recombinant CAII; format: binding; settings: 37 °C, pH 7.0, observed (not intrinsic)
T2 construct: made in house; host or cells: E. coli
Protocol: (§1) The binding affinities of all fluorescein-containing compounds were determined for all 12 catalytically active CA isozymes by the thermal shift assay (TSA). […] However, the SFA technique cannot determine the affinities lower than the enzyme concentration used in the assay. […] In addition, we used isothermal titration calorimetry (ITC), the standard assay to determine affinity and enthalpy of protein–ligand binding. […] Therefore, ITC was used only to determine the enthalpy of interaction and confirm the ordering of compound affinities.
(§2) All twelve catalytically active human CA isozymes were prepared recombinantly as previously described. Isozymes CAIX, CAXII, and CAXIV were the catalytic domains of the proteins[14],[38]. All isozymes were expressed in E. coli except CAIX that has been prepared in mammalian cells. The proteins were chromatographically purified on ion-exchange or benzene sulfonamide containing affinity columns. Protein MW was confirmed by mass spectrometry with 1 Da precision as predicted from gene sequence.
(§3) Compound affinities for the twelve catalytically active CA isozymes were determined by the thermal shift assay as previously described[30],[39]. Protein solutions containing 1,8-anilinonaphthalenesulfonate fluorescent probe were heated from 25 to 100 °C at a rate of one degree per minute while following the fluorescence of the probe. The temperature scanning curves provided the melting temperature Tm of the protein. The Tm has a distinct dependence on the concentration of a compound. Stronger binders shift the Tm to a greater extent than the weak binders. The Tm dependencies on compound concentration were fit to obtain the affinity Kd[40].

CAIII = biological target: T3, CAIII (Homo sapiens, UniProt P07451); test: Thermal shift assay (TSA), recombinant CAIII; format: binding; settings: 37 °C, pH 7.0, observed (not intrinsic)
T3 construct: made in house; host or cells: E. coli
T3 sequence (P07451 whole entry): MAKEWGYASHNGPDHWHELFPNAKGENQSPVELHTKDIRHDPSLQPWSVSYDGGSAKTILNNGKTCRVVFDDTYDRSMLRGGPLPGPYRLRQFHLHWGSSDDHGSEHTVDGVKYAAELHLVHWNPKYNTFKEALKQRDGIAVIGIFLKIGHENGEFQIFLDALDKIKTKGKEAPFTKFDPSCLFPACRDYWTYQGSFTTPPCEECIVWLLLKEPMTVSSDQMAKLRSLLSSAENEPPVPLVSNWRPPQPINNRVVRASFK
Protocol: as §1, §2, §3

CAIV = biological target: T4, CAIV (Homo sapiens, UniProt P22748); test: Thermal shift assay (TSA), recombinant CAIV; format: binding; settings: 37 °C, pH 7.0, observed (not intrinsic)
T4 construct: made in house; host or cells: E. coli
T4 sequence (P22748 19-312): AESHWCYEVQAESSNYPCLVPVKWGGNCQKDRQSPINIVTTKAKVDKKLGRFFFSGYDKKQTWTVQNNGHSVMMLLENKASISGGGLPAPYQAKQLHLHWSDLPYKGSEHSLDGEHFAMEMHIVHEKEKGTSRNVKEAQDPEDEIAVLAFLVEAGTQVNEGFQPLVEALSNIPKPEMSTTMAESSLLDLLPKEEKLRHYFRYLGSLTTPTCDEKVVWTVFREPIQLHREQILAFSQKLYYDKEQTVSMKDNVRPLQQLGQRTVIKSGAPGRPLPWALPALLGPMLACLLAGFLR

CAVA = biological target: T5, CAVA (Homo sapiens, UniProt P35218); test: Thermal shift assay (TSA), recombinant CAVA; format: binding; settings: 37 °C, pH 7.0, observed (not intrinsic)
T5 construct: made in house; host or cells: E. coli
T5 sequence (P35218 39-305): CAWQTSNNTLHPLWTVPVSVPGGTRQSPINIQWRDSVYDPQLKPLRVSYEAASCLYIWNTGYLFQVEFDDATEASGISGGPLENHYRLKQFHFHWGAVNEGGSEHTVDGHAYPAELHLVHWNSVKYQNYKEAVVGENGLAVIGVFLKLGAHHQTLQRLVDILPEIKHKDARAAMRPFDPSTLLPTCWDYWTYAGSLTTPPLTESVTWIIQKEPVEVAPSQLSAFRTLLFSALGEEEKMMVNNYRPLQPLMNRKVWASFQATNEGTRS
Protocol: as §1, §2, §3

CAVB = biological target: T6, CAVB (Homo sapiens, UniProt Q9Y2D0); test: Thermal shift assay (TSA), recombinant CAVB; format: binding; settings: 37 °C, pH 7.0, observed (not intrinsic)
T6 construct: made in house; host or cells: E. coli
T6 sequence (Q9Y2D0 34-317): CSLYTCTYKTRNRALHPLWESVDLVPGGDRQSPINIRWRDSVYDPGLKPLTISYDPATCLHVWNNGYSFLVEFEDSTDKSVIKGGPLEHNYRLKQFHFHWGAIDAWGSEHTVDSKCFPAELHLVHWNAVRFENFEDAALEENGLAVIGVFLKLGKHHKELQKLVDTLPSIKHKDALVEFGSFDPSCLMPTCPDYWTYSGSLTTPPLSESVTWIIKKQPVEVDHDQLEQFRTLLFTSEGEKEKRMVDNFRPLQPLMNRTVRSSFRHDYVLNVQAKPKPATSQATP

CAVI = biological target: T7, CAVI (Homo sapiens, UniProt P23280); test: Thermal shift assay (TSA), recombinant CAVI; format: binding; settings: 37 °C, pH 7.0, observed (not intrinsic)
T7 construct: made in house; host or cells: E. coli
T7 sequence (P23280 18-308): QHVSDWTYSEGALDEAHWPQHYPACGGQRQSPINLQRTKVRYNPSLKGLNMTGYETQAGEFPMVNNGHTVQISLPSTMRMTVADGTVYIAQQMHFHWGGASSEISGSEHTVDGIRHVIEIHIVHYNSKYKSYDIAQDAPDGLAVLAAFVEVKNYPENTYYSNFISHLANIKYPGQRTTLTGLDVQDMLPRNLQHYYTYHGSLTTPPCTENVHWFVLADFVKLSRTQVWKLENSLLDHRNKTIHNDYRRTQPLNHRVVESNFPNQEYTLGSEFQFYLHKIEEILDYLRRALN
Protocol: as §1, §2, §3

CAVII = biological target: T8, CAVII (Homo sapiens, UniProt P43166); test: Thermal shift assay (TSA), recombinant CAVII; format: binding; settings: 37 °C, pH 7.0, observed (not intrinsic)
T8 construct: made in house; host or cells: E. coli
T8 sequence (P43166 whole entry): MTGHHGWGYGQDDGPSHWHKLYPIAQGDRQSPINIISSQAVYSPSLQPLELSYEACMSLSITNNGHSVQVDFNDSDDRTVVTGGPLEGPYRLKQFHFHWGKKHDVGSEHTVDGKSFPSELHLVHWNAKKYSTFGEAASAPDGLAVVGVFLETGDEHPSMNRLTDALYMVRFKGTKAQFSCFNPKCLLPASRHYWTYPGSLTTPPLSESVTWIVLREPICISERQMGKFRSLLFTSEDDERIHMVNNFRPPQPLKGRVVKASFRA

[1] = biological target: T9, catalytic domain of recombinant human CAIX (Homo sapiens, UniProt Q16790); test: Thermal shift assay (TSA), recombinant CAIX catalytic domain; format: binding
T9 construct: Isozymes CAIX, CAXII, and CAXIV were the catalytic domains of the proteins; made in house; host or cells: mammalian cells

CAXII = biological target: T10, CAXII (Homo sapiens, UniProt O43570); test: Thermal shift assay (TSA), recombinant CAXII; format: binding; settings: 37 °C, pH 7.0, observed (not intrinsic)
T10 construct: Isozymes CAIX, CAXII, and CAXIV were the catalytic domains of the proteins; made in house; host or cells: E. coli
T10 sequence (O43570 30-289 limits assumed): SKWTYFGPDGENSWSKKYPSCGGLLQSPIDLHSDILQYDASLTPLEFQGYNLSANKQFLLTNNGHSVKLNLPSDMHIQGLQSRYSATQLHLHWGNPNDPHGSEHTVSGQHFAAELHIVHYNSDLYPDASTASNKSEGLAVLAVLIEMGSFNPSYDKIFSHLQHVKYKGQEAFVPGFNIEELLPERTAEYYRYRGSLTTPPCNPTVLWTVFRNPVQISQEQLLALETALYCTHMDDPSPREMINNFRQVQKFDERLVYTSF
Protocol: as §1, §2, §3

CAXIII = biological target: T11, CAXIII (Homo sapiens, UniProt Q8N1Q1); test: Thermal shift assay (TSA), recombinant CAXIII; format: binding; settings: 37 °C, pH 7.0, observed (not intrinsic)
T11 construct: made in house; host or cells: E. coli
T11 sequence (Q8N1Q1 whole entry): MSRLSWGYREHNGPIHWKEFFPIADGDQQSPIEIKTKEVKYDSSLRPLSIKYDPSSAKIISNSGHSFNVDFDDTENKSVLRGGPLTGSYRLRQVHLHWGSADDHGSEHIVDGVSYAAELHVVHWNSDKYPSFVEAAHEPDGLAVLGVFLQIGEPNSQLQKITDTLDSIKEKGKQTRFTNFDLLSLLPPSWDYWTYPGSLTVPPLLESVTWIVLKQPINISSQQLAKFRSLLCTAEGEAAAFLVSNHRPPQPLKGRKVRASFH

CAXIV = biological target: T12, CAXIV (Homo sapiens, UniProt Q9ULX7); test: Thermal shift assay (TSA), recombinant CAXIV; format: binding; settings: 37 °C, pH 7.0, observed (not intrinsic)
T12 construct: Isozymes CAIX, CAXII, and CAXIV were the catalytic domains of the proteins; made in house; host or cells: E. coli
T12 sequence (Q9ULX7 20-278 limits assumed): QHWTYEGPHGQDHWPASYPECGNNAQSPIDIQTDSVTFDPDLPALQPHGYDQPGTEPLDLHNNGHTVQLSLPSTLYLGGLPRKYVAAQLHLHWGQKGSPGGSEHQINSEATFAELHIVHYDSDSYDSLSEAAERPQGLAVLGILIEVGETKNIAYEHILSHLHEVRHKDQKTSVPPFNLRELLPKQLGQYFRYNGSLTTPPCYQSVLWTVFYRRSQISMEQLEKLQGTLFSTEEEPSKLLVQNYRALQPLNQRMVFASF

[2] = test system: CA activity in hypoxic HeLa WT cells; test: CA activity by gas-analysis mass spectrometry in live hypoxic HeLa WT cells; format: cell-based, human; settings: Fig. 7A
Protocol: (§4) Catalytic activity of CA in hypoxic human cervical adenocarcinoma (HeLa) cells was determined by monitoring the ^18O depletion of doubly labeled ^13C^18O2 through several hydration and dehydration steps with a quadrupole mass spectrometer (OmniStar GSD 320; Pfeiffer Vacuum, Asslar, Germany) as previously described[16],[51]. HeLa cells were cultured in Dulbecco’s Modified Eagle’s Medium–high glucose (D5671; Sigma Aldrich, Schnelldorf, Germany), supplemented with 10% fetal calf serum and 1% penicillin / streptomycin. The cell line was cultured under hypoxia (1% O2) for three days prior to measurements. Cells were detached from the plate with Accumax Cell Detachment Solution (ACM-1F; Capricorn Scientific, Ebsdorfergrund, Germany), washed and resuspended in HEPES-buffered saline (143 mM NaCl, 5 mM KCl, 2 mM CaCl2, 1 mM MgSO4, 1 mM Na2HPO4, 10 mM HEPES, pH 7.2). Approximately 3 × 10^6 cells, dissolved in 5 mL of HEPES-buffered saline (pH 7.2, RT), were used for every single measurement. […] For every measurement, the non-catalyzed reaction was determined for 12 min in the presence of inhibitor, before cell suspension was added to the measuring cuvette and the catalyzed reaction was determined for 12 min. […] IC50 values were determined by Hill1 fit using OriginPro 8.6 (OriginLab Corporation). CA enzymatic activity in units (U) was calculated as defined by Badger and Price[52]. […]

[3] = test system: CA activity in hypoxic HeLa CAIX-KO cells; test: CA activity by gas-analysis mass spectrometry in live hypoxic HeLa CAIX-KO cells; format: cell-based, human
Protocol: as §4

hypoxic HeLa cells = test: XTT cell viability assay; format: cell-based, human; settings: up to 1 µM, 3 h
Protocol: Potential cytotoxic effects on HeLa cells were determined by XTT assay. The XTT was carried out as previously described by Scudiero et al.[53]. HeLa cells were cultured under hypoxia (1% O2) for three days prior to measurements. Cells were detached from the plate with Accumax Cell Detachment Solution (ACM-1F; Capricorn Scientific, Ebsdorfergrund, Germany), washed and resuspended in HEPES-buffered saline (143 mM NaCl, 5 mM KCl, 2 mM CaCl2, 1 mM MgSO4, 1 mM Na2HPO4, 10 mM HEPES, pH 7.2). For each measurement, 100,000 cells were incubated with 1 nM or 1 µM of GZ18-23 for 3 h prior to adding the XTT (No. 38450, SERVA Electrophoresis GmbH, Heidelberg, Germany) / electron coupling reagent (PMS; No. 32030, SERVA). XTT-specific absorbance was measured at 492 nm using a microplate reader (Tecan Infinite F200; Tecan Trading AG, Männedorf, Switzerland). Background absorption was measured at 690 nm. Cells, which were not incubated in GZ18-23, were used as control (100%).

[4] = biological target: T13, CAIX expressed on live HeLa cells (Homo sapiens, UniProt Q16790); test: Competition of unlabeled compound with 10 nM GZ19-32 on hypoxic HeLa cells (competitive binding model); format: cell-based
T13 construct: recombinant CAIX and endogenous CAIX expressed on the cell surface; endogenous in cells; host or cells: HeLa (WT), grown under hypoxia (1% O2)

[5] = biological target: CAIX expressed on live A549 cells (Homo sapiens, UniProt Q16790); test: Competition of unlabeled compound with 10 nM GZ19-32 on hypoxic A549 cells (competitive binding model)

T1 sequence (P00915 whole entry): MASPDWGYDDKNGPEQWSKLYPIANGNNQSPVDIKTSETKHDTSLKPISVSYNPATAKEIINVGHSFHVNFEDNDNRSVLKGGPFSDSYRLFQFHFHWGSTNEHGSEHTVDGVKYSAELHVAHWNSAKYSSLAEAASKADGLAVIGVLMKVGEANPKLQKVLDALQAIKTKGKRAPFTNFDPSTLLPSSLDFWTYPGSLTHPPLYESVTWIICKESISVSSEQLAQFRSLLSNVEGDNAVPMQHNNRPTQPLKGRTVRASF

Kd (CAI): 5000 nM
Kd (CAII): 160 nM
Kd (CAIII): > 200000 nM
Kd (CAIV): 120 nM
Kd (CAVA): 12500 nM
Kd (CAVB): 160 nM
Kd (CAVI): 140 nM
Kd (CAVII): 43 nM
Kd ([1]; TSA, 37 °C, pH 7.0, observed (not intrinsic), read-out: Kd CAIX): 0.033 nM
selectivity for CAIX over CAVII ([1]; ratio of Kd): 1000 ×
selectivity for CAIX over CAXII ([1]; ratio of Kd): 30 fold
selectivity for CAIX over CAXIII ([1]; ratio of Kd): 300 ×
selectivity for CAIX over CAXIV ([1]; ratio of Kd): 100 fold
selectivity for CAIX over the remaining CA isozymes ([1]; ratio of Kd): more than 3000 ×
Kd ([1]; recombinant CAIX, read-out: Kd for CAIX): 0.03 nM
Kd ([1]; recombinantly purified CAIX, read-out: Kd for purified CAIX by TSA): 0.033 nM
Kd (CAXII): 1 nM and 1.4 nM
Kd (CAXIII): 10 nM
Kd (CAXIV): 3.3 nM
IC50 ([2]; Homo sapiens, hypoxic HeLa cells, gas-analysis MS, read-out: k, inhibition of CA activity (Hill fit)): 0.92 nM
dosing midpoint of competition curve ([4]; 10 nM GZ19-32, Fig. 12): around 10 nM
Kd ([4]; HeLa cells grown under hypoxia, mixture with 10 nM GZ19-32, 20 min incubation, read-out: KdA, nM (competitive binding model)): 0.3 nM
difference between affinity for CAIX on cells and purified CAIX ([4]; lower affinity on cells): 3 to 10 factor
melting point: 143 to 144 °C
Kd [5]: 0.22 nM
Structure (SMILES): NS(=O)(=O)c1c(F)c(F)c(S(=O)(=O)CCC(=O)O)c(NC2CCCCCCC2)c1F [GZ18-23, 3-((2-(cyclooctylamino)-3,5,6-trifluoro-4-sulfamoylphenyl)sulfonyl)propanoic acid]
overall CA activity remaining uninhibited ([2]; hypoxic HeLa WT cells): approximately 20%
effect on CA activity [3]: no effect
viability of hypoxic HeLa cells (hypoxic HeLa cells): did not affect the viability

— paper PMC9586938, “Picomolar fluorescent probes for compound affinity determination to carbonic anhydrase IX expressed in live cancer cells” (Scientific Reports, 2022)
